Results: US20230076820A1, “Substituted Pyrazole Compounds and Methods of Using Them for Treatment of Hyperproliferative Diseases” (Bantam Pharmaceutical, LLC, priority 2016, published 2023)

Test system: HCT116 cells
Experiment: Total glutathione levels (GSH-Glo), HCT116
Assay type: cell-based
Experimental: Measurement of glutathione levels following treatment using three cell lines: BJAB, HCT116, and normal human lung fibroblasts (NHLF) were maintained in RPMI (Wisent), McCoy’s (Wisent) or FGM-2 (Lonza) medium, respectively. For total glutathione measurement, 5000 cells /well (BJAB or HCT116) or 10,000 cells/well (NHLF) were transferred to clear-bottom 96-well assay plates (Thermo Fisher) in a volume of 50 µL. Plates were incubated overnight at 37° C. in 5% CO2, in an unsealed plastic bag with damp paper. Test compound was serially diluted in medium plus 0.4% DMSO, and 50 µL/well of each dilution was transferred to the assay plate. Assay plates were incubated at 37° C. in 5% CO2 in unsealed plastic bag with damp paper for the indicated time. For total glutathione measurement, GSH-Glo™ reagent (Promega) was prepared by diluting provided Luciferin-NT (1:100), Glutathione S-Transferase (1:100), and DTT (1 mM final) to GSH-Glo™ Reaction buffer, and 100 µL was added to assay plates, followed by 30 min incubation at room temperature, and then 100 µL Luciferin Detection Reagent was added. […] Luminescence was measured using Tecan Infinite 200Pro.
Effect on Glutathione levels: BJAB and HCT116 cells were maintained in RPMI medium (Wisent) or McCoy’s medium (Wisent), respectively. […] Total glutathione levels were determined according to the procedure described above.

## CC1=CC(=O)c2ccccc2C1=O [menadione, Menadione]
HCT116, FIG. 3
  glutathione levels after treatment: reduction in glutathione levels
HCT116, with or without N-acetyl cysteine, FIG. 3
  glutathione levels in the presence or absence of N-acetyl cysteine: N-acetyl cysteine in the media prevents the reduction of glutathione
